As a reminder, the IC50 is the concentration that inhibits the measured activity by half.

In the assay the target is T1, human full-length MKNK1 (Homo sapiens, UniProt Q9BUB5, T385D).
T1 construct: GST (N); purchased Carna Biosciences 02-145; host or cells: insect cells (baculovirus expression system)
T1 sequence (Q9BUB5 1-424 isoform Q9BUB5-2 T344D): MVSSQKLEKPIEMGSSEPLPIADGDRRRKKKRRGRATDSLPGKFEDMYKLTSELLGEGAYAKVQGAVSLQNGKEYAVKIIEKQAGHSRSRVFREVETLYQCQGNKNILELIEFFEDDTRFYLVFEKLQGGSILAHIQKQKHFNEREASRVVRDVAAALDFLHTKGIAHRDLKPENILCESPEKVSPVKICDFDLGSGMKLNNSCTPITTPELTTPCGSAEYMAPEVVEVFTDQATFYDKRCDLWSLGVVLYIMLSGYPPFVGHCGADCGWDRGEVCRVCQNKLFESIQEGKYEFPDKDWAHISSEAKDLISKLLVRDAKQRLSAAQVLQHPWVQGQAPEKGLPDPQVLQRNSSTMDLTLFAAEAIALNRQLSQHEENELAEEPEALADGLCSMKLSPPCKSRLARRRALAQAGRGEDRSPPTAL
The assay can be described thus: MKNK1 kinase high ATP assay (TR-FRET). Format: biochemical. As to conditions: 2 mM ATP, after preincubation with MKNK1; read-out: MKNK1 IC50 (MKNK1 high ATP). The essentials:
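Compound was preincubated 15 min at 22° C. with MKNK1 in 50 mM HEPES pH 7.5, 5 mM MgCl2, 1.0 mM DTT, then the reaction ran 30 min at 22° C. with 2 mM ATP and 0.06 μM biotinylated peptide (final).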
For orientation: TR-FRET usually uses a lanthanide donor and a delayed reading to cut background.
As for `COc1cc2[nH]ncc2cc1Nc1ncnc2sc3c(c12)CCC(C(=O)N1CC2CC1CO2)C3` (mixture of isomers) [Example 262, {(7RS)-4-[(6-Methoxy-1H-indazol-5-yl)amino]-5,6,7,8-tetrahydro[1]benzothieno[2,3-d]pyrimidin-7-yl}[(1S,4S)-2-oxa-5-azabicyclo[2.2.1]hept-5-yl]methanone], the IC50 turned out to be 6.1 nM.
As to `CCOc1cc2[nH]ncc2cc1Nc1ncnc2sc3c(c12)CCC(C(=O)N1CC[C@@H](O)C1)C3` (mixture of isomers) [Example 233, {(7RS)-4-[(6-Ethoxy-1H-indazol-5-yl)amino]-5,6,7,8-tetrahydro[1]benzothieno[2,3-d]pyrimidin-7-yl}[(3R)-3-hydroxypyrrolidin-1-yl]methanone], the concentration for half-maximal inhibition (IC50) came to 0.5 nM.
The result for `CCOc1cc2[nH]ncc2cc1Nc1ncnc2sc3c(c12)CCC(C(=O)N(C)C1CC1)C3` (racemic) [Example 235, (RS)—N—Cyclopropyl-4-[(6-ethoxy-1H-indazol-5-yl)amino]-N-methyl-5,6,7,8-tetrahydro[1]benzothieno[2,3-d]pyrimidine-7-carboxamide] reads 0.5 nM.
Take `O=C(NCCCn1ccnc1)C1CCc2c(sc3ncnc(Nc4ccc5[nH]ncc5c4)c23)C1` (racemic) [Example 93, (RS)-N-[3-(1H-imidazol-1-yl)propyl]-4-(1H-indazol-5-ylamino)-5,6,7,8-tetrahydro[1]benzothieno[2,3-d]pyrimidine-7-carboxamide]: the IC50 stood at 9.9 nM.
Consider `Cn1cc(CNC(=O)C2CCc3c(sc4ncnc(Nc5ccc6[nH]ncc6c5)c34)C2)cn1` (racemic) [Example 158, (RS)-4-(1H-indazol-5-ylamino)-N-[(1-methyl-1H-pyrazol-4-yl)methyl]-5,6,7,8-tetrahydro[1]benzothieno[2,3-d]pyrimidine-7-carboxamide], for which the IC50 came to 16.5 nM.
With `COc1cc2[nH]ncc2cc1Nc1ncnc2sc3c(c12)CCC(C(=O)N(CCO)CCO)C3` (racemic) [Example 234, (RS)—N, N-Bis(2-hydroxyethyl)-4-[(6-methoxy-1H-indazol-5-yl)amino]-5,6,7,8-tetrahydro[1]benzothieno[2,3-d]pyrimidine-7-carboxamide], the half-inhibitory concentration (IC50) was 0.4 nM.
`NC(=O)C1CCc2c(sc3ncnc(Nc4ccc5[nH]ncc5c4)c23)C1` (stereo not shown) [Example 3, 4-(1H-Indazol-5-ylamino)-5,6,7,8-tetrahydro[1]benzothieno[2,3-d]pyrimidine-7-carboxamide]: the IC50 was 8 nM.
The figure for `CN(C)C(=O)C1CCc2c(sc3ncnc(Nc4cc5cn[nH]c5cc4OCCCCl)c23)C1` (racemic) [Example 267, (RS)-4-{[6-(3-Chloropropoxy)-1H-indazol-5-yl]amino}-N,N-dimethyl-5,6,7,8-tetrahydro[1]benzothieno[2,3-d]pyrimidine-7-carboxamide] is 2.2 nM; for `O=C(NCc1ccsc1)C1CCc2c(sc3ncnc(Nc4ccc5[nH]ncc5c4)c23)C1` (racemic) [Example 151, (RS)-4-(1H-indazol-5-ylamino)-N-(thiophen-3-ylmethyl)-5,6,7,8-tetrahydro[1]benzothieno[2,3-d]pyrimidine-7-carboxamide] it is 3.2 nM.
The figure for `CCOc1cc2[nH]ncc2cc1Nc1ncnc2sc3c(c12)CCC(C(=O)N1CC2(CCS2(=O)=O)C1)C3` (racemic) [Example 263, (RS)-(1,1-Dioxido-1-thia-6-azaspiro[3.3]hept-6-yl){4-[(6-ethoxy-1H-indazol-5-yl)amino]-5,6,7,8-tetrahydro[1]benzothieno[2,3-d]pyrimidin-7-yl}methanone] is 3.3 nM; for `Cc1ccccc1NC(=O)C1CCc2c(sc3ncnc(Nc4ccc5[nH]ncc5c4)c23)C1` (stereo not shown) [Example 15, 4-(1H-indazol-5-ylamino)-N-(2-methylphenyl)-5,6,7,8-tetrahydro[1]benzothieno[2,3-d]pyrimidine-7-carboxamide] it is 3 nM.
For `CCCN(C)C(=O)C1CCc2c(sc3ncnc(Nc4cc5cn[nH]c5cc4OC)c23)C1` (stereo not shown) [Example 68, 4-[(6-Methoxy-1H-indazol-5-yl)amino]-N-methyl-N-propyl-5,6,7,8-tetrahydro[1]benzothieno[2,3-d]pyrimidine-7-carboxamide], the IC50 was 0.7 nM.
With `O=C(Nc1ccnnc1)C1CCc2c(sc3ncnc(Nc4ccc5[nH]ncc5c4)c23)C1` (racemic) [Example 128, (RS)-4-(1H-indazol-5-ylamino)-N-(pyridazin-4-yl)-5,6,7,8-tetrahydro[1]benzothieno[2,3-d]pyrimidine-7-carboxamide], the IC50 is 15 nM.
For the compound `CCN(C(=O)C1CCc2c(sc3ncnc(Nc4cc5cn[nH]c5cc4OC)c23)C1)C(C)C` (stereo not shown) [Example 67, N-Ethyl-4-[(6-Methoxy-1H-indazol-5-yl)amino]-N-(propan-2-yl)-5,6,7,8-tetrahydro[1]benzothieno[2,3-d]pyrimidine-7-carboxamide], the IC50 stood at 0.7 nM.
For the compound `CN(C)CCN(Cc1ccccc1)C(=O)C1CCc2c(sc3ncnc(Nc4ccc5[nH]ncc5c4)c23)C1` (racemic) [Example 84, (RS)-N-benzyl-N-[2-(dimethylamino)ethyl]-4-(1H-indazol-5-ylamino)-5,6,7,8-tetrahydro[1]benzothieno[2,3-d]pyrimidine-7-carboxamide], the IC50 is 5.5 nM.
On to `O=C(Nc1ccccc1)C1CCc2c(sc3ncnc(Nc4ccc5[nH]ncc5c4)c23)C1` (stereo not shown) [Example 5, 4-(1H-Indazol-5-ylamino)-N-phenyl-5,6,7,8-tetrahydro[1]benzothieno[2,3-d]pyrimidine-7-carboxamide], for which the IC50 was determined as 9 nM.
`O=C(C1CCc2c(sc3ncnc(Nc4ccc5[nH]ncc5c4)c23)C1)N1CCN(c2ccccc2)CC1` (racemic) [Example 106, (RS)-[4-(1H-indazol-5-ylamino)-5,6,7,8-tetrahydro[1]benzothieno[2,3-d]pyrimidin-7-yl](4-phenylpiperazin-1-yl)methanone]: the IC50 came out at 14.5 nM.
The result for `CN(C)C(=O)C1CCc2c(sc3ncnc(Nc4cc5cn[nH]c5cc4OC(F)(F)F)c23)C1` (racemic) [Example 249, (RS)—N,N-Dimethyl-4-{[6-(trifluoromethoxy)-1H-indazol-5-yl]amino}-5,6,7,8-tetrahydro[1]benzothieno[2,3-d]pyrimidine-7-carboxamide] reads 15 nM; that for `CC1CCN(CCN(C)C(=O)C2CCc3c(sc4ncnc(Nc5ccc6[nH]ncc6c5)c34)C2)CC1` (racemic) [Example 169, (RS)-4-(1H-indazol-5-ylamino)-N-methyl-N-[2-(4-methylpiperidin-1-yl)ethyl]-5,6,7,8-tetrahydro[1]benzothieno[2,3-d]pyrimidine-7-carboxamide], 11.1 nM; that for `CC(C)Oc1cc2[nH]ncc2cc1Nc1ncnc2sc3c(c12)CCC(C(=O)N1CCC1)C3` (racemic) [Example 219, (RS)-Azetidin-1-yl(4-{[6-(propan-2-yloxy)-1H-indazol-5-yl]amino}-5,6,7,8-tetrahydro[1]benzothieno[2,3-d]pyrimidin-7-yl)methanone], 0.5 nM.
`CCCOc1cc2[nH]ncc2cc1Nc1ncnc2sc3c(c12)CCC(C(=O)N(C)C)C3` (racemic) [Example 269, (RS)—N,N-Dimethyl-4-[(6-propoxy-1H-indazol-5-yl)amino]-5,6,7,8-tetrahydro[1]benzothieno[2,3-d]pyrimidine-7-carboxamide]: the IC50 was 2.7 nM.
`Cc1ccc(CNC(=O)C2CCc3c(sc4ncnc(Nc5ccc6[nH]ncc6c5)c34)C2)cc1` (stereo not shown) [Example 27, 4-(1H-Indazol-5-ylamino)-N-(4-methylbenzyl)-5,6,7,8-tetrahydro[1] benzothieno [2,3-d]pyrimidine-7-carboxamide]: the IC50 amounted to 3 nM.
The result for `O=C(C1CCc2c(sc3ncnc(Nc4ccc5[nH]ncc5c4)c23)C1)N1CCN(Cc2ccncc2)CC1` (racemic) [Example 142, (RS)-[4-(1H-indazol-5-ylamino)-5,6,7,8-tetrahydro[1]benzothieno[2,3-d]pyrimidin-7-yl][4-(pyridin-4-ylmethyl)piperazin-1-yl]methanone] reads 22.4 nM; that for `NS(=O)(=O)c1ccc(CNC(=O)C2CCc3c(sc4ncnc(Nc5ccc6[nH]ncc6c5)c34)C2)cc1` (racemic) [Example 121, (RS)-4-(1H-indazol-5-ylamino)-N-(4-sulfamoylbenzyl)-5,6,7,8-tetrahydro[1]benzothieno[2,3-d]pyrimidine-7-carboxamide], 4 nM.
Consider `COCCCNC(=O)C1CCc2c(sc3ncnc(Nc4ccc5[nH]ncc5c4)c23)C1` (stereo not shown) [Example 48, 4-(1H-Indazol-5-ylamino)-N-(3-methoxypropyl)-5,6,7,8-tetrahydro[1] benzothieno [2,3-d]pyrimidine-7-carboxamide], for which the IC50 came out at 12 nM.
For the compound `CCN(CCO)C(=O)C1CCc2c(sc3ncnc(Nc4cc5cn[nH]c5cc4OC(C)C)c23)C1` (racemic) [Example 214, (RS)—N-ethyl-N-(2-hydroxyethyl)-4-{[6-(propan-2-yloxy)-1H-indazol-5-yl]amino}-5,6,7,8-tetrahydro[1]benzothieno[2,3-d]pyrimidine-7-carboxamide], the IC50 was found to be 0.3 nM.
Turning to `CC(C)Oc1cc2[nH]ncc2cc1Nc1ncnc2sc3c(c12)CCC(C(=O)N1[C@H](C)CC[C@H]1C)C3` (mixture of isomers) [Example 227, [(2R,5R)-2,5-Dimethylpyrrolidin-1-yl]{(7RS)-4-[(6-isopropoxy-1H-indazol-5-yl)amino]-5,6,7,8-tetrahydro[1]benzothieno[2,3-d]pyrimidin-7-yl}methanone], the IC50 stood at 0.6 nM.
Consider `COC(=O)N1CCN(C(=O)C2CCc3c(sc4ncnc(Nc5ccc6[nH]ncc6c5)c34)C2)CC1` (racemic) [Example 160, (RS)-methyl4-{[4-(1H-indazol-5-ylamino)-5,6,7,8-tetrahydro[1]benzothieno[2,3-d]pyrimidin-7-yl]carbonyl}piperazine-1-carboxylate], for which the IC50 amounted to 31.1 nM.

Values taken from patent US9540392B2, “Thienopyrimidines” (BAYER PHARMA AKTIENGESELLSCHAFT, priority 2012, dated 2017).
